# Results published in patent US8569489B2 (A.B. Intelpharm Limited, priority 2007, dated 2013).
# Counter-ions that a name gives are not always drawn. Like-named read-outs stand apart in the source and are kept apart here.
# Columns and labels:
# mice = assay: Acute toxicity, mice perorally
# [1] = pH of aqueous solution of salts; type: physicochemical
# [2] = tested on: isolated guinea pig ileum (spasmogenic effect of histamine); assay: Isolated guinea pig ileum, suppression of the spasmogenic effect of histamine; type: cell-based; conditions: histamine spasm, read-out: Antihistaminic activity, isolated ileum of guinea pig, IC50
# Description: Study of the antihistaminic activity of the compounds on which a claim is made was done using known methodologies (Rukovodstvo po eksperimental'nomu izucheniyu novykh farmakologicheskikh veshchestv [Manual on experimental study of new pharmacological substances], Moscow, 2005, p. 489) on isolated guinea pig ileum (suppression of the spasmogenic effect of histamine) and on anesthetized guinea pigs (antagonism in relation to the bronchoconstrictor effect of histamine). In tests on intact animals, substances were administered intravenously (5 minutes before the administration of histamine) and orally (2 hours before the beginning of the study).
# [3] = tested on: H1-histamine receptors (bronchoconstrictor effect of histamine); assay: Anesthetized guinea pigs, antagonism of the bronchoconstrictor effect of histamine (histamine bronchospasm model); type: in vivo, guinea pig; conditions: for Antihistaminic activity, guinea pigs in vivo, intravenous administration, ED50 / Antihistaminic activity, guinea pigs in vivo, peroral administration, ED50: anesthetized guinea pigs; for Antihistaminic activity, guinea pigs in vivo, intravenous administration, ED50: 5 minutes before histamine; for Antihistaminic activity, guinea pigs in vivo, peroral administration, ED50: orally 2 hours before the study; for ED50: Cavia porcellus
# Experimental: In tests on intact animals, substances were administered intravenously (5 minutes before the administration of histamine) and orally (2 hours before the beginning of the study).
structure (smiles),measurement,setting,value
Cl.Cl.Cn1c(=O)c2c(ncn2CC(O)CN2CCN(C(c3ccccc3)c3ccc(Cl)cc3)CC2)n(C)c1=O (racemic) [II-i],"Acute toxicity, LD50",mice,>1000.0 mg/kg
Cl.Cl.Cn1c(=O)c2c(ncn2CC(O)CN2CCN(C(c3ccc(F)cc3)c3ccc(F)cc3)CC2)n(C)c1=O (racemic) [II-j],"Acute toxicity, LD50",mice,>1000.0 mg/kg
"Cn1c(=O)[nH]c(=O)c2c1ncn2CCCCN1CCN(C(c2ccccc2)c2ccccc2)CC1 [Dihydrochloride, 7-/4-(4-benzhydrylpiperazinyl-1)butyl/-3-methylxanthine]",pH of aqueous solution,[1],2.45
"Cn1c(=O)n(CC(O)CN2CCN(C(c3ccccc3)c3ccc(Cl)cc3)CC2)c(=O)c2c1ncn2Cc1ccccc1 (stereo not drawn) [I-aa, 1-[2-oxy-3-(4^1-chlorbenzhydryl-4-piperazinyl-1)propyl]-3-methyl-7-benzylxanthine]",IC50,[2],536 nM
Cl.Cl.Cn1c(=O)n(CCCN2CCN(C(c3ccccc3)c3ccccc3)CC2)c(=O)c2c1ncn2Cc1ccccc1 [I-b],IC50,[2],126 nM
same,"Antihistaminic activity, guinea pigs in vivo, intravenous administration, ED50",[3],0.3 mg/kg
same,"Acute toxicity, LD50",mice,>800.0 mg/kg
Cl.Cl.Cn1c(=O)n(CCCN2CCN(C(c3ccccc3)c3ccc(Cl)cc3)CC2)c(=O)c2c1ncn2Cc1ccccc1 (stereo not drawn) [I-c],IC50,[2],133 nM
same,"Acute toxicity, LD50",mice,400.0 mg/kg
Cl.Cl.Cn1c(=O)n(CCCN2CCN(C(c3ccc(F)cc3)c3ccc(F)cc3)CC2)c(=O)c2c1ncn2Cc1ccccc1 [I-d],IC50,[2],114 nM
same,"Antihistaminic activity, guinea pigs in vivo, intravenous administration, ED50",[3],0.6 mg/kg
same,"Antihistaminic activity, guinea pigs in vivo, peroral administration, ED50",[3],3.0 mg/kg
same,"Acute toxicity, LD50",mice,>250.0 mg/kg
Cn1c(=O)n(CCCN2CCN(C(c3ccccc3)c3ccccc3)CC2)c(=O)c2c1ncn2Cc1ccc(F)cc1 [I-e],IC50,[2],430 nM
Cn1c(=O)n(CCCN2CCN(C(c3ccc(F)cc3)c3ccc(F)cc3)CC2)c(=O)c2c1ncn2Cc1ccc(F)cc1 [I-f],IC50,[2],514 nM
Cn1c(=O)n(CCCN2CCN(C(c3ccccc3)c3ccccc3)CC2)c(=O)c2c1ncn2CC(=O)O [I-g],IC50,[2],244 nM
Cl.Cl.Cn1c(=O)n(CCCCN2CCN(C(c3ccccc3)c3ccccc3)CC2)c(=O)c2c1ncn2Cc1ccccc1 [I-i],IC50,[2],111 nM
same,"Antihistaminic activity, guinea pigs in vivo, intravenous administration, ED50",[3],0.2 mg/kg
same,"Antihistaminic activity, guinea pigs in vivo, peroral administration, ED50",[3],0.3 mg/kg
same,"Acute toxicity, LD50",mice,400.0 mg/kg
Cl.Cl.Cn1c(=O)n(CCCCN2CCN(C(c3ccccc3)c3ccccc3)CC2)c(=O)c2c1ncn2Cc1ccc(F)cc1 [I-j],IC50,[2],227 nM
same,"Acute toxicity, LD50",mice,400.0 mg/kg
Cl.Cl.Cn1c(=O)n(CCCCN2CCN(C(c3ccc(F)cc3)c3ccc(F)cc3)CC2)c(=O)c2c1ncn2Cc1ccc(F)cc1 [I-k],IC50,[2],267 nM
same,"Acute toxicity, LD50",mice,400.0 mg/kg
Cl.Cl.Cn1c(=O)n(CCCCN2CCN(C(c3ccc(F)cc3)c3ccc(F)cc3)CC2)c(=O)c2c1ncn2Cc1ccccc1 [I-l],IC50,[2],185 nM
same,"Antihistaminic activity, guinea pigs in vivo, intravenous administration, ED50",[3],0.5 mg/kg
same,"Antihistaminic activity, guinea pigs in vivo, peroral administration, ED50",[3],0.5 mg/kg
same,"Acute toxicity, LD50",mice,>1000.0 mg/kg
Cl.Cl.Cn1c(=O)n(CCCCCN2CCN(C(c3ccccc3)c3ccccc3)CC2)c(=O)c2c1ncn2Cc1ccccc1 [I-m],IC50,[2],92 nM
same,"Acute toxicity, LD50",mice,>200.0 mg/kg
Cl.Cl.Cn1c(=O)n(CCCCCN2CCN(C(c3ccc(F)cc3)c3ccc(F)cc3)CC2)c(=O)c2c1ncn2Cc1ccccc1 [I-n],IC50,[2],253 nM
same,"Antihistaminic activity, guinea pigs in vivo, intravenous administration, ED50",[3],1.2 mg/kg
same,"Antihistaminic activity, guinea pigs in vivo, peroral administration, ED50",[3],3.0 mg/kg
same,"Acute toxicity, LD50",mice,250 mg/kg
Cl.Cl.Cn1c(=O)n(CCN2CCN(C(c3ccc(F)cc3)c3ccc(F)cc3)CC2)c(=O)c2[nH]cnc21 [I-p],IC50,[2],192 nM
same,"Antihistaminic activity, guinea pigs in vivo, intravenous administration, ED50",[3],1.5 mg/kg
Cl.Cl.Cn1c(=O)n(CCCN2CCN(C(c3ccccc3)c3ccccc3)CC2)c(=O)c2[nH]cnc21 [I-q],IC50,[2],42 nM
same,"Antihistaminic activity, guinea pigs in vivo, intravenous administration, ED50",[3],0.4 mg/kg
same,"Acute toxicity, LD50",mice,>1000.0 mg/kg
Cl.Cl.Cn1c(=O)n(CCCN2CCN(C(c3ccc(F)cc3)c3ccc(F)cc3)CC2)c(=O)c2[nH]cnc21 [I-r],IC50,[2],76 nM
same,"Antihistaminic activity, guinea pigs in vivo, peroral administration, ED50",[3],>3.0 mg/kg
same,"Acute toxicity, LD50",mice,>1000.0 mg/kg
"Cl.Cl.Cn1c(=O)n(CCCCN2CCN(C(c3ccccc3)c3ccccc3)CC2)c(=O)c2[nH]cnc21 [I-s, 1-[4-(benzhydryl-4-piperazinyl-1)butyl]-3-methylxanthine dihydrochloride]",IC50,[2],26 nM
same,"Antihistaminic activity, guinea pigs in vivo, intravenous administration, ED50",[3],0.2 mg/kg
same,"Antihistaminic activity, guinea pigs in vivo, peroral administration, ED50",[3],0.3 mg/kg
same,"Acute toxicity, LD50",mice,>750.0 mg/kg
Cl.Cl.Cn1c(=O)n(CCCCN2CCN(C(c3ccccc3)c3ccc(Cl)cc3)CC2)c(=O)c2[nH]cnc21 (stereo not drawn) [I-t],IC50,[2],104 nM
same,"Antihistaminic activity, guinea pigs in vivo, intravenous administration, ED50",[3],0.3 mg/kg
same,"Acute toxicity, LD50",mice,>1000.0 mg/kg
Cl.Cl.Cn1c(=O)n(CCCCN2CCN(C(c3ccc(F)cc3)c3ccc(F)cc3)CC2)c(=O)c2[nH]cnc21 [I-u],IC50,[2],51 nM
same,"Antihistaminic activity, guinea pigs in vivo, intravenous administration, ED50",[3],0.7 mg/kg
same,"Antihistaminic activity, guinea pigs in vivo, peroral administration, ED50",[3],>3.0 mg/kg
same,"Acute toxicity, LD50",mice,>1000.0 mg/kg
Cl.Cl.Cn1cnc2c1c(=O)n(CCCCN1CCN(C(c3ccccc3)c3ccccc3)CC1)c(=O)n2C [I-v],IC50,[2],32 nM
same,"Antihistaminic activity, guinea pigs in vivo, intravenous administration, ED50",[3],0.2 mg/kg
same,"Antihistaminic activity, guinea pigs in vivo, peroral administration, ED50",[3],>1.5 mg/kg
same,"Acute toxicity, LD50",mice,>1000.0 mg/kg
"Cn1cnc2c1c(=O)n(CC(O)CN1CCN(C(c3ccccc3)c3ccccc3)CC1)c(=O)n2C (stereo not drawn) [I-x, 1-[2-oxy-3-(benzhydryl-4-piperazinyl-1)propyl]-3,7-dimethylxanthine dihydrochloride]",IC50,[2],1270 nM
"Cn1cnc2c1c(=O)n(CC(O)CN1CCN(C(c3ccccc3)c3ccc(Cl)cc3)CC1)c(=O)n2C (stereo not drawn) [I-y, 1-[2-oxy-3-(4^1-chlorbenzhydryl-4-piperazinyl-1)propyl]-3,7-dimethylxanthine]",IC50,[2],123 nM
"Cn1c(=O)n(CC(O)CN2CCN(C(c3ccccc3)c3ccccc3)CC2)c(=O)c2c1ncn2Cc1ccccc1 (stereo not drawn) [I-z, 1-[2-oxy-3-(benzhydryl-4-piperazinyl-1)-propyl]-3-methyl-7-benzylxanthine]",IC50,[2],524 nM
Cl.Cl.Cn1c(=O)c2c(ncn2CCCN2CCN(C(c3ccccc3)c3ccccc3)CC2)n(C)c1=O [II-d],IC50,[2],12 nM
same,"Antihistaminic activity, guinea pigs in vivo, intravenous administration, ED50",[3],0.05 mg/kg
same,"Acute toxicity, LD50",mice,>1000.0 mg/kg
Cl.Cl.Cn1c(=O)[nH]c(=O)c2c1ncn2CCCN1CCN(C(c2ccccc2)c2ccccc2)CC1 [II-e],IC50,[2],19 nM
same,"Antihistaminic activity, guinea pigs in vivo, intravenous administration, ED50",[3],0.1 mg/kg
same,"Acute toxicity, LD50",mice,900.0 mg/kg
Cl.Cl.Cn1c(=O)c2c(ncn2CCCCN2CCN(C(c3ccccc3)c3ccccc3)CC2)n(C)c1=O [II-f],IC50,[2],17 nM
same,"Antihistaminic activity, guinea pigs in vivo, intravenous administration, ED50",[3],0.1 mg/kg
same,"Antihistaminic activity, guinea pigs in vivo, peroral administration, ED50",[3],<1.5 mg/kg
same,"Acute toxicity, LD50",mice,750.0 mg/kg
"Cl.Cl.Cn1c(=O)c2c(ncn2CC(O)CN2CCN(C(c3ccccc3)c3ccccc3)CC2)n(C)c1=O (stereo not drawn) [II-h, 1,3-dimethyl-7-[2-oxy-3-(benzhydryl-4-piperazinyl-1)propyl]xanthine dihydrochloride]","Antihistaminic activity, guinea pigs in vivo, intravenous administration, ED50",[3],0.1 mg/kg
same,"Antihistaminic activity, guinea pigs in vivo, peroral administration, ED50",[3],2.0 mg/kg
same,"Acute toxicity, LD50",mice,>1000.0 mg/kg
"CCOC(=O)N1CCC(=C2c3ccc(Cl)cc3CCc3cccnc32)CC1 [Loratadine, reference compound]",IC50,[2]; Cavia porcellus,472 nM
same,ED50,"[3]; iv, read-out: Antihistaminic activity, guinea pigs in vivo, intravenous administration, ED50",0.3 mg/kg
same,ED50,"[3]; po, read-out: Antihistaminic activity, guinea pigs in vivo, peroral administration, ED50",0.9 mg/kg
same,Duration of effective blockade of H1-histamine receptors,"[3]; histamine bronchospasm model, oral dose of 3 mg/kg",18 h
"Cn1c(=O)[nH]c(=O)c2c1ncn2CCCCN1CCN(C(c2ccccc2)c2ccccc2)CC1 [Oxalate, 7-/4-(4-benzhydrylpiperazinyl-1)butyl/-3-methylxanthine]",pH of aqueous solution,[1],3.44
